The nature of series [1]: Cmax in HIV1 infected pregnant woman during postpartum period at 800 mg three times/day. The series is classed as ADME, organism-based. On the set-up: dose 800 mg. As to conditions: female, human, in vivo.
Series [2] in a line: Oral clearance in HIV1 infected pregnant woman during postpartum period at 800 mg three times/day. The series is classed as ADME, organism-based. The settings on record: female, human, in vivo.
Series [3] can be described thus: Tmax in HIV1 infected pregnant woman during postpartum period at 800 mg three times/day. The settings on record: female, human, in vivo. The series is classed as ADME, organism-based.
A short description of series [4]: AUC (0-8 hrs) in HIV1 infected pregnant woman during postpartum period at 800 mg three times/day. As to conditions: female, human, plasma. The series is classed as ADME, organism-based. Also noted: dose 800 mg, time < 8 hr.
The species named for series [5] is Homo sapiens. Briefly: Oral clearance in HIV1 infected pregnant woman during antepartum period at 800 mg three times/day. The class given is ADME, organism-based. The settings on record: in vivo.
A short description of series [6]: Tmax in HIV1 infected pregnant woman during antepartum period at 800 mg three times/day. The series is classed as ADME, organism-based. The settings on record: female, human, in vivo.
Series [7] can be described thus: Cmax in HIV1 infected pregnant woman during antepartum period at 800 mg three times/day. The class given is ADME, organism-based. The settings on record: female, human, in vivo. Also noted: dose 800 mg.
Series [8] is filed under the species Homo sapiens. Briefly: AUC (0-8 hrs) in HIV1 infected pregnant woman during antepartum period at 800 mg three times/day. The class given is ADME, organism-based, Plasma. On the set-up: dose 800 mg, time < 8 hr. As to conditions: in vivo.

In the case of `CC(C)(C)NC(=O)[C@@H]1CN(Cc2cccnc2)CCN1C[C@@H](O)C[C@@H](Cc1ccccc1)C(=O)N[C@H]1c2ccccc2C[C@H]1O.O` [INDINAVIR], the Cmax worked out at 9270 ng/mL in series [1] and 4370 ng/mL in series [7]. For the same compound, the CL/F was 697 mL/min in series [2] and 3558 mL/min in the series filed under Homo sapiens [5]. Moreover, the Tmax in series [3] is 1.88 h; in series [6], 1.85 h. The same compound showed an AUC at 8 h in series [4] of 23800 ng·h/mL. The compound further returned an AUC in the series listed under Homo sapiens [8] of 459 µg·min/mL.

Usually Cmax stands for the highest concentration seen after dosing. As usually defined, the CL/F is the apparent clearance, not corrected for the fraction that reaches the circulation. As usually defined, the Tmax is the time from dosing to the highest level. The term AUC denotes concentration integrated over time. The low end stands for low exposure, the high end for high exposure.

The record behind these values is ChEMBL document CHEMBL1142235, “Pharmacokinetics and safety of indinavir in human immunodeficiency virus-infected pregnant women” (Antimicrob Agents Chemother, 2007).
